Several values for one entry are separate records, joined by “and”; a condition that tells them apart may be missing. Equal values may be shown once.
Key:
[1] = Clinical DSST in subjects with mild-to-moderate dementia (Phase 2a); assay type: in vivo, human
Source text: Clinical DSST Data in Cognitively Impaired Subjects
DSST is a commonly used tests in clinical neuropsychology, and has been used to measure a range of cognitive functions including intact motor speed, attention, executive, and visuo-perceptual functions. Reference is made to Jaeger J. Digit Symbol Substitution Test: The Case for Sensitivity Over Specificity hi Neuropsychological Testing. J Clin Psychopharmacol. 2018; 38(5):513-519. doi:10.1097/JCP.0000000000000941, which is incorporated by reference with regard to the example. DSST scores were assessed in a randomized, parallel, 4-dose Phase 2a study in subjects with mild-to-moderate dementia (MMSE for mild 20-26, for moderate 14-19) before and after treatment with compound of Example 11. A total of 34 subjects were randomized to one of 4 doses of drug, 3 mg (n=8), 10 mg (n=9), 30 mg (n=9) or 90 mg (n=8) administered orally once-a-day for 14 days then followed-up at day 21 (7-days post-dosing discontinuation.
DSST scores are based on the number of correct substitutions in a fixed timeframe, and a higher score in the DSST denotes improvement. Data was collected at four time points for all subjects in each of the four dose groups: Prescreen (PS, one week before BL), baseline (BL), end-of-treatment (EOT) and follow-up (FU, one week after EOT). The DSST results averaged across all subjects at PS (14.1, SD=11.8) and BL (13.9, SD=12.5) were quite similar as would be expected. The larger standard deviations, and the wide range of scores (zero to 48) reflects the broad range of cognitive function in the 34 subjects in this trial. DSST averages per dose group at PS were: 3 mg, 13.88 (SD=10.83); 10 mg, 14.33 (SD=13.52); 30 mg, 18.78 (SD=14.52); and 90 mg, 8.88 (SD=6.56). The data is best described as averaged differences in individual results as it reduces variability. For all 34 subjects, the change in DSST score was −0.21 (SD=4.23) for (BL-PS), and 3.5 (SD=5.51) for (FU-EOT), with unpaired t-test p-value of 0.005. […]

[2] = Rat brain penetrance pharmacokinetics after oral dosing; assay type: in vivo, male Sprague-Dawley rats; settings: for B/P Ratio / Brain Tissue Cone. / Plasma Conc.: individual rats; for Average (B/P Ratio): mean of 3 rats
Source text: Determination of Brain to Plasma Ratios for Compound of Example 11
For compounds of the present disclosure to be effective in treating cognitive impairment, it must have an ability to cross the BBB and penetrate the brain. […] The plasma exposure as measured by AUClast was 9569±1190 hr*ng/mL.

SMILES: CCc1oc(-c2ccc(OC)cc2)nc1CCOc1ccc2c(c1)CC[C@H]2CC(=O)[O-].[Na+] [Example 11, Sodium (S)-2-(5-(2-(5-ethyl-2-(4-methoxyphenyl)oxazol-4-yl)ethoxy)-2,3-dihydro-1H-inden-1-yl)acetate]
- change in DSST score EOT-PS ([1]; 3 mg group): 0.57
- change in DSST score FU-PS ([1]; 10 mg group): 3.14
- change in DSST score (FU-EOT) ([1]; all 34 subjects): 3.5
- Brain/Plasma ratio ([2]; 1 hour, rat, oral 3 mg/kg): 0.361±0.142
- B/P Ratio ([2]; 1.0 hr): 0.36 and 0.51 and 0.22
- Brain Tissue Cone. ([2]; 1.0 hr): 161 ng/g and 101 ng/g and 226 ng/g
- Plasma Conc. ([2]; 1.0 hr): 453 ng/mL and 199 ng/mL and 1020 ng/mL
- Average (B/P Ratio) ([2]; 1.0 hr): 0.361
- Brain/Plasma ratio ([2]; 3 hours, rat, oral 3 mg/kg): 0.220±0.033
- B/P Ratio ([2]; 3.0 hr): 0.26 and 0.21 and 0.19
- Brain Tissue Cone. ([2]; 3.0 hr): 234 ng/g and 269 ng/g and 274 ng/g
- Plasma Conc. ([2]; 3.0 hr): 1270 ng/mL and 1430 ng/mL
- Average (B/P Ratio) ([2]; 3.0 hr): 0.220
- Brain/Plasma ratio ([2]; 5 hours, rat, oral 3 mg/kg): 0.171±0.011
- B/P Ratio ([2]; 5.0 hr): 0.17 and 0.18 and 0.16
- Brain Tissue Cone. ([2]; 5.0 hr): 208 ng/g and 247 ng/g and 333 ng/g
- Plasma Conc. ([2]; 5.0 hr): 1260 ng/mL and 1340 ng/mL and 2040 ng/mL
- Average (B/P Ratio) ([2]; 5.0 hr): 0.171
- Brain/Plasma ratio ([2]; 7 hours, rat, oral 3 mg/kg): 0.328±0.154
- B/P Ratio ([2]; 7.0 hr): 0.16 and 0.35 and 0.47
- Brain Tissue Cone. ([2]; 7.0 hr): 203 ng/g and 216 ng/g
- Plasma Conc. ([2]; 7.0 hr): 1240 ng/mL and 368 ng/mL and 462 ng/mL
- Average (B/P Ratio) ([2]; 7.0 hr): 0.328
- Brain/Plasma ratio ([2]; 12 hours, rat, oral 3 mg/kg): 0.350±0.077
- B/P Ratio ([2]; 12.0 hr): 0.30 and 0.44 and 0.31
- Brain Tissue Cone. ([2]; 12.0 hr): 104 ng/g and 114 ng/g and 117 ng/g
- Plasma Conc. ([2]; 12.0 hr): 345 ng/mL and 259 ng/mL and 377 ng/mL
- Average (B/P Ratio) ([2]; 12.0 hr): 0.350
- average plasma half-life ([2]; rat, oral 3 mg/kg): 3.33 h
- plasma Cmax ([2]; rat, oral 3 mg/kg): 1547 ± 248 ng/mL
- plasma exposure AUClast ([2]; rat, oral 3 mg/kg): 9569 ± 1190 ng·h/mL
